Data set [1] addresses T1, Solute carrier family 22 member 3 (Rattus norvegicus, UniProt O88446).
T1 sequence (O88446 whole entry): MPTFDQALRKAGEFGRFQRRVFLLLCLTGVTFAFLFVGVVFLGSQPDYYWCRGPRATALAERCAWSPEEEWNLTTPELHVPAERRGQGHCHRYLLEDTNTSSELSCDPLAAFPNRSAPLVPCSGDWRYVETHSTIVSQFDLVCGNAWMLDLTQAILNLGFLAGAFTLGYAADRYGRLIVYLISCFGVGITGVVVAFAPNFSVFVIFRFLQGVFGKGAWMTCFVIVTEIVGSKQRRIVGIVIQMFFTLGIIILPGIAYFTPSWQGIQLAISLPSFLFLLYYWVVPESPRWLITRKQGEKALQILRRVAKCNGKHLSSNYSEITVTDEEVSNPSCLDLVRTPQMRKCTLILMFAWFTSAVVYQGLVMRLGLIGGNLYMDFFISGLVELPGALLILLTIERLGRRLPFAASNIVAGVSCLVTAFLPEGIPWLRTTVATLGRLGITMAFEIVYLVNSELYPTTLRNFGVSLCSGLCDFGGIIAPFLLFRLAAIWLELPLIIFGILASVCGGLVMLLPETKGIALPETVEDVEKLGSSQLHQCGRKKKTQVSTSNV
The data set can be described thus: TP_TRANSPORTER: uptake in Xenopus laevis oocytes. Format: functional, cell-based. The following applies: oocyte.

Data set [2] concerns the target T1, Solute carrier family 22 member 3. The data set can be described thus: TP_TRANSPORTER: uptake in OCT3-expressing HeLa cells. Format: functional, cell-based. The following applies: human.
Data set [3] concerns the target T2, OCT3 (Solute carrier family 22 member 3) (Rattus norvegicus, UniProt O88446).
T2 sequence (O88446 whole entry): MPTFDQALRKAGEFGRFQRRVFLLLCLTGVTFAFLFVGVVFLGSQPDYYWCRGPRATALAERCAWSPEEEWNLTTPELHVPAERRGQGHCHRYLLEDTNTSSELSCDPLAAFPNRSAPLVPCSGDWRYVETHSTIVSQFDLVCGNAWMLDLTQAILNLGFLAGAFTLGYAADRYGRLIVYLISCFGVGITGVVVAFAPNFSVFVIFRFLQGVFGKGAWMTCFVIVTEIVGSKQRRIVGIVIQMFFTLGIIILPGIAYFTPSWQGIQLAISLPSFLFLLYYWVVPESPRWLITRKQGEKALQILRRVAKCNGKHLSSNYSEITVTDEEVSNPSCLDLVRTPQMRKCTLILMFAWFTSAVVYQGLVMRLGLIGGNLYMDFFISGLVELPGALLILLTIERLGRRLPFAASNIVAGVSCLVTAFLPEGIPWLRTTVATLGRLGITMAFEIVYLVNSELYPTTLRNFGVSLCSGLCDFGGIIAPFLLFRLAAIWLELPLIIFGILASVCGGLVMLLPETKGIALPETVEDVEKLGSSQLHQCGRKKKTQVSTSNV
The data set can be described thus: TP_TRANSPORTER: inhibition of Guanidine uptake (Guanidine: 35 uM, MPTP: 5000 uM) in OCT3-expressing HeLa cells. Format: functional, cell-based. Also on record: scale not given: the % may be the effect or the level left. The following applies: human, probe guanidine (35 uM), read-out: Activity.

Data set [4] has as its target T2, OCT3 (Solute carrier family 22 member 3). The data set can be described thus: TP_TRANSPORTER: inhibition of Guanidine uptake (Guanidine: 35 uM, MPP+: 5000 uM) in OCT3-expressing HeLa cells. Type of data set: functional, cell-based. Details: scale not given: the % may be the effect or the level left. The settings on record: human, probe guanidine (35 uM), read-out: Activity.

The target is the same in data set [5]. The data set can be described thus: TP_TRANSPORTER: inhibition of Guanidine uptake (Guanidine: 35 uM, TMA: 5000 uM) in OCT3-expressing HeLa cells. Type of data set: functional, cell-based. Details: scale not given: the % may be the effect or the level left. The settings on record: human, probe guanidine (35 uM), read-out: Activity.
The target is the same in data set [6]. The data set can be described thus: in vitro. The following applies: human, OCT3-expressing HeLa cells, probe guanidine (35 uM).
Data set [7] has the same target. The data set can be described thus: TP_TRANSPORTER: inhibition of Guanidine uptake (Guanidine: 35 uM, Desipramine: 5000 uM) in OCT3-expressing HeLa cells. Type of data set: functional, cell-based. Also on record: scale not given: the % may be the effect or the level left. The settings on record: human, probe guanidine (35 uM), read-out: Activity.
For data set [8] the target is unchanged. The data set can be described thus: TP_TRANSPORTER: inhibition of Guanidine uptake (Guanidine: 35 uM, NMN: 5000 uM) in OCT3-expressing HeLa cells. Format: functional, cell-based. Details: scale not given: the % may be the effect or the level left. The settings on record: human, probe guanidine (35 uM), read-out: Activity.
Data set [9] shares this target. The data set can be described thus: in vitro. The following applies: human, OCT3-expressing HeLa cells, probe guanidine (35 uM). The source holds these as a separate data set.
Data set [10] shares this target. The data set can be described thus: TP_TRANSPORTER: inhibition of Guanidine uptake (Guanidine: 35 uM, Serotonin: 5000 uM) in OCT3-expressing HeLa cells. The following applies: human, probe guanidine (35 uM), read-out: Activity. Format: functional, cell-based. Also on record: scale not given: the % may be the effect or the level left.
Substrate in data set [11]: CC[N+](CC)(CC)CC
The data set can be described thus: cells, lysate or membranes named.

Values joined by “and” are separate entries in the source; they are usually repeats but may differ in a detail not shown here. Identical values can stand only once.

`N=C(N)N` [GUANIDINE]: the Activity entry in data set [1] and in data set [2] was “substrate [+]” each time.

Consider `CN1CC=C(c2ccccc2)CC1`, for which the activity at 5000 µM in data set [3] was found to be 14%. Consider `C[n+]1ccc(-c2ccccc2)cc1`, for which the activity at 5000 µM in [4] is 22%. As for `C[N+](C)(C)C` [TETRAMETHYLAMMONIUM], the activity at 5000 µM in [5] was 59%. As for `CC[N+](CC)(CC)CC` [TETRYLAMMONIUM], the activity at 5000 µM in data set [6] came out at 41%.

On to `CNCCCN1c2ccccc2CCc2ccccc21` [DESIPRAMINE], for which, in data set [7], the activity at 5000 µM turned out to be 1%. `CNC(=O)c1cccnc1` [NICOTINYL METHYLAMIDE]: the activity at 5000 µM in [8] was determined as 33%. Consider `CN1CCC[C@H]1c1cccnc1` [NICOTINE], for which, in data set [9], the activity at 5000 µM came to 52%. With `NCCc1c[nH]c2ccc(O)cc12` [SEROTONIN], in data set [10], the activity at 5000 µM turned out to be 30%.

B1: Solute carrier family 22 member 3 (Rattus norvegicus) (protein)
chain: MPTFDQALRKAGEFGRFQRRVFLLLCLTGVTFAFLFVGVVFLGSQPDYYWCRGPRATALAERCAWSPEEEWNLTTPELHVPAERRGQGHCHRYLLEDTNTSSELSCDPLAAFPNRSAPLVPCSGDWRYVETHSTIVSQFDLVCGNAWMLDLTQAILNLGFLAGAFTLGYAADRYGRLIVYLISCFGVGITGVVVAFAPNFSVFVIFRFLQGVFGKGAWMTCFVIVTEIVGSKQRRIVGIVIQMFFTLGIIILPGIAYFTPSWQGIQLAISLPSFLFLLYYWVVPESPRWLITRKQGEKALQILRRVAKCNGKHLSSNYSEITVTDEEVSNPSCLDLVRTPQMRKCTLILMFAWFTSAVVYQGLVMRLGLIGGNLYMDFFISGLVELPGALLILLTIERLGRRLPFAASNIVAGVSCLVTAFLPEGIPWLRTTVATLGRLGITMAFEIVYLVNSELYPTTLRNFGVSLCSGLCDFGGIIAPFLLFRLAAIWLELPLIIFGILASVCGGLVMLLPETKGIALPETVEDVEKLGSSQLHQCGRKKKTQVSTSNV
B1: the Km in data set [11] was 2.5 mM and 6.2 mM.

The record behind these values is ChEMBL document CHEMBL2074228, “Cloning and functional characterization of a potential-sensitive, polyspecific organic cation transporter (OCT3) most abundantly expressed in placenta” (J Biol Chem, 1998).
